From patent publication US20220119354A1, “DIAMINO-SUBSTITUTED PYRIDINES AND PYRIMIDINES AS HERBICIDES” (FMC Corporation, priority 2019, published 2022)

Legend:
Format in all cases: in vivo
corn (Zea mays) = assay: Test A postemergence, corn; details: 0 to 100 scale, 0 no effect, 100 complete control
Summary of the method: (§1)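 Greenhouse evaluation: treated and untreated pots were held about 10 d, then injury was rated visually from 0 (no effect) to 100 (complete control). Application was preemergence to soil or postemergence to seedlings 2–10 cm tall, using a non-phytotoxic solvent formulation with surfactant.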

[1] = system: sedge, umbrella (small-flower umbrella sedge, Cyperus difformis); assay: Test B flooded paddy test, umbrella sedge; details: Flood, 250 g ai/ha, applied to paddy water, 2-leaf stage, visual evaluation after 13 to 15 d
Summary of the method: (§2)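 Growth to two leaves preceded treatment. Flooding to 3 cm above soil surface, then water-applied compound; depth kept constant. Scored visually relative to controls after 13–15 d greenhouse; 100 means full control.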

[2] = system: foxtail, giant (Setaria faberii); assay: Test A preemergence, giant foxtail; details: 0 to 100 scale, 0 is no effect, 100 is complete control
Summary of the method: as §1

[3] = system: pigweed (Amaranthus retroflexus); assay: Test A preemergence, pigweed; details: 0 to 100 scale, 0 is no effect, 100 is complete control
Summary of the method: as §1

rice (Oryza sativa) = assay: Test B flooded paddy test, rice; details: Flood, 250 g ai/ha, applied to paddy water, 2-leaf stage, visual evaluation after 13 to 15 d
Summary of the method: as §2

[4] = system: barnyardgrass (Echinochloa crus-galli); assay: Test B flooded paddy test, barnyardgrass; details: Flood, 250 g ai/ha, applied to paddy water, 2-leaf stage, visual evaluation after 13 to 15 d
Summary of the method: as §2

[5] = system: ryegrass, Italian (Lolium multiflorum); assay: Test A postemergence, Italian ryegrass; details: 0 to 100 scale, 0 no effect, 100 complete control
Summary of the method: as §1

[6] = system: galium (catchweed bedstraw, Galium aparine); assay: Test A postemergence, galium; details: 0 to 100 scale, 0 no effect, 100 complete control
Summary of the method: as §1

[7] = system: wheat (Triticum aestivum); assay: Test A postemergence, wheat; details: 0 to 100 scale, 0 no effect, 100 complete control
Summary of the method: as §1

[8] = system: pigweed (Amaranthus retroflexus); assay: Test A postemergence, pigweed; details: 0 to 100 scale, 0 no effect, 100 complete control
Summary of the method: as §1

[9] = system: ducksalad (Heteranthera limosa); assay: Test B flooded paddy test, ducksalad; details: Flood, 250 g ai/ha, applied to paddy water, 2-leaf stage, visual evaluation after 13 to 15 d
Summary of the method: as §2

[10] = system: blackgrass (Alopecurus myosuroides); assay: Test A postemergence, blackgrass; details: 0 to 100 scale, 0 no effect, 100 complete control
Summary of the method: as §1

[11] = system: barnyardgrass (Echinochloa crus-galli); assay: Test A preemergence, barnyardgrass; details: 0 to 100 scale, 0 is no effect, 100 is complete control
Summary of the method: as §1

[12] = system: barnyardgrass (Echinochloa crus-galli); assay: Test A postemergence, barnyardgrass; details: 0 to 100 scale, 0 no effect, 100 complete control
Summary of the method: as §1

[13] = system: foxtail, giant (Setaria faberii); assay: Test A postemergence, giant foxtail; details: 0 to 100 scale, 0 no effect, 100 complete control
Summary of the method: as §1

[14] = system: ryegrass, Italian (Lolium multiflorum); assay: Test A preemergence, Italian ryegrass; details: 0 to 100 scale, 0 is no effect, 100 is complete control
Summary of the method: as §1

[15] = system: ragweed (common ragweed, Ambrosia elatior); assay: Test A preemergence, ragweed; details: 0 to 100 scale, 0 is no effect, 100 is complete control
Summary of the method: as §1

kochia (Kochia scoparia) [16] = assay: Test A preemergence, kochia; details: 0 to 100 scale, 0 is no effect, 100 is complete control
Summary of the method: as §1

kochia (Kochia scoparia) [17] = assay: Test A postemergence, kochia; details: 0 to 100 scale, 0 no effect, 100 complete control
Summary of the method: as §1

[18] = system: ragweed (common ragweed, Ambrosia elatior); assay: Test A postemergence, ragweed; details: 0 to 100 scale, 0 no effect, 100 complete control
Summary of the method: as §1

SMILES	Plant response rating, Corn (corn (Zea mays); 125 g ai/ha)	Plant response rating, Corn (corn (Zea mays); 500 g ai/ha)	Plant response rating, Sedge, Umbrella (0 to 100 scale, 0 is no effect, 100 is complete control) [1]	Foxtail, Giant plant response rating ([2]; 125 g ai/ha)	Foxtail, Giant plant response rating ([2]; 500 g ai/ha)	Pigweed plant response rating ([3]; 125 g ai/ha)	Pigweed plant response rating ([3]; 500 g ai/ha)	Plant response rating, Rice (0 to 100 scale, 0 is no effect, 100 is complete control) (rice (Oryza sativa))	Plant response rating, Barnyardgrass (0 to 100 scale, 0 is no effect, 100 is complete control) [4]	Plant response rating, Ryegrass, Italian ([5]; 125 g ai/ha)	Plant response rating, Ryegrass, Italian ([5]; 500 g ai/ha)	Plant response rating, Galium ([6]; 125 g ai/ha)	Plant response rating, Galium ([6]; 500 g ai/ha)	Plant response rating, Wheat ([7]; 125 g ai/ha)	Plant response rating, Wheat ([7]; 500 g ai/ha)	Plant response rating, Pigweed ([8]; 125 g ai/ha)	Plant response rating, Pigweed ([8]; 500 g ai/ha)	Plant response rating, Ducksalad (0 to 100 scale, 0 is no effect, 100 is complete control) [9]	Plant response rating, Blackgrass ([10]; 125 g ai/ha)	Plant response rating, Blackgrass ([10]; 500 g ai/ha)	also measured
C[C@H](Nc1nc(N)c(C(F)(F)F)c(C(F)(F)F)n1)C1Cc2ccccc2C1 [Compound 68]	20	0	0	0	0	0	0	0	0	0	0	0	0	0	0	0	0	0	0	0	Barnyardgrass plant response rating ([11]; 125 g ai/ha): 0; Barnyardgrass plant response rating ([11]; 500 g ai/ha): 0; Plant response rating, Barnyardgrass ([12]; 125 g ai/ha): 0; Plant response rating, Barnyardgrass ([12]; 500 g ai/ha): 0; Plant response rating, Foxtail, Giant ([13]; 125 g ai/ha): 0; Plant response rating, Foxtail, Giant ([13]; 500 g ai/ha): 0; Ryegrass, Italian plant response rating ([14]; 125 g ai/ha): 0; Ryegrass, Italian plant response rating ([14]; 500 g ai/ha): 0; Ragweed plant response rating ([15]; 125 g ai/ha): 0; Ragweed plant response rating ([15]; 500 g ai/ha): 0; Kochia plant response rating (kochia (Kochia scoparia) [16]; 125 g ai/ha): 0; Kochia plant response rating (kochia (Kochia scoparia) [16]; 500 g ai/ha): 0; Plant response rating, Kochia (kochia (Kochia scoparia) [17]; 125 g ai/ha): 20; Plant response rating, Kochia (kochia (Kochia scoparia) [17]; 500 g ai/ha): 40; Plant response rating, Ragweed ([18]; 125 g ai/ha): 40; Plant response rating, Ragweed ([18]; 500 g ai/ha): 50
C[C@H](Nc1ncc(C(F)(F)F)c(N)n1)c1cc2cccc(F)c2o1 [Compound 72]	0	0	0	0	0	0	80	0	0	0	0	0	40	0	0	40	50	0	0	0	Barnyardgrass plant response rating ([11]; 125 g ai/ha): 0; Barnyardgrass plant response rating ([11]; 500 g ai/ha): 0; Plant response rating, Barnyardgrass ([12]; 125 g ai/ha): 0; Plant response rating, Barnyardgrass ([12]; 500 g ai/ha): 0; Plant response rating, Foxtail, Giant ([13]; 125 g ai/ha): 0; Plant response rating, Foxtail, Giant ([13]; 500 g ai/ha): 0; Ryegrass, Italian plant response rating ([14]; 125 g ai/ha): 0; Ryegrass, Italian plant response rating ([14]; 500 g ai/ha): 0; Ragweed plant response rating ([15]; 125 g ai/ha): 0; Ragweed plant response rating ([15]; 500 g ai/ha): 0; Kochia plant response rating (kochia (Kochia scoparia) [16]; 125 g ai/ha): 0; Kochia plant response rating (kochia (Kochia scoparia) [16]; 500 g ai/ha): 0; Plant response rating, Kochia (kochia (Kochia scoparia) [17]; 125 g ai/ha): 0; Plant response rating, Kochia (kochia (Kochia scoparia) [17]; 500 g ai/ha): 30; Plant response rating, Ragweed ([18]; 125 g ai/ha): 0; Plant response rating, Ragweed ([18]; 500 g ai/ha): 30
C[C@H](Nc1ncc(C(F)(F)F)c(N)n1)c1cc2c(F)cccc2o1 [Compound 74]	0	0	0	0	0	0	10	0	0	0	0	0	50	0	0	60	90	0	0	0	Barnyardgrass plant response rating ([11]; 125 g ai/ha): 0; Barnyardgrass plant response rating ([11]; 500 g ai/ha): 0; Plant response rating, Barnyardgrass ([12]; 125 g ai/ha): 0; Plant response rating, Barnyardgrass ([12]; 500 g ai/ha): 0; Plant response rating, Foxtail, Giant ([13]; 125 g ai/ha): 0; Plant response rating, Foxtail, Giant ([13]; 500 g ai/ha): 0; Ryegrass, Italian plant response rating ([14]; 125 g ai/ha): 0; Ryegrass, Italian plant response rating ([14]; 500 g ai/ha): 0; Ragweed plant response rating ([15]; 125 g ai/ha): 0; Ragweed plant response rating ([15]; 500 g ai/ha): 40; Kochia plant response rating (kochia (Kochia scoparia) [16]; 125 g ai/ha): 0; Kochia plant response rating (kochia (Kochia scoparia) [16]; 500 g ai/ha): 0; Plant response rating, Kochia (kochia (Kochia scoparia) [17]; 125 g ai/ha): 20; Plant response rating, Kochia (kochia (Kochia scoparia) [17]; 500 g ai/ha): 60; Plant response rating, Ragweed ([18]; 125 g ai/ha): 20; Plant response rating, Ragweed ([18]; 500 g ai/ha): 30
C[C@H](Nc1ncc(C(F)(F)F)c(N)n1)c1cc2ccccc2n1C [Compound 76]	0	0	0	0	0	0	0	0	0	0	0	30	30	0	0	0	0	0	0	0	Barnyardgrass plant response rating ([11]; 125 g ai/ha): 0; Barnyardgrass plant response rating ([11]; 500 g ai/ha): 0; Plant response rating, Barnyardgrass ([12]; 125 g ai/ha): 0; Plant response rating, Barnyardgrass ([12]; 500 g ai/ha): 0; Plant response rating, Foxtail, Giant ([13]; 125 g ai/ha): 0; Plant response rating, Foxtail, Giant ([13]; 500 g ai/ha): 0; Ryegrass, Italian plant response rating ([14]; 125 g ai/ha): 0; Ryegrass, Italian plant response rating ([14]; 500 g ai/ha): 30; Ragweed plant response rating ([15]; 125 g ai/ha): 0; Ragweed plant response rating ([15]; 500 g ai/ha): 0; Kochia plant response rating (kochia (Kochia scoparia) [16]; 125 g ai/ha): 0; Kochia plant response rating (kochia (Kochia scoparia) [16]; 500 g ai/ha): 0; Plant response rating, Kochia (kochia (Kochia scoparia) [17]; 125 g ai/ha): 0; Plant response rating, Kochia (kochia (Kochia scoparia) [17]; 500 g ai/ha): 0; Plant response rating, Ragweed ([18]; 125 g ai/ha): 0; Plant response rating, Ragweed ([18]; 500 g ai/ha): 30
